Experimental data published in ChEMBL document CHEMBL1201862, “PubChem BioAssay data set” (2004).
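Following 48 hours of exposure in 96-well plates, responses at five concentrations were used to interpolate endpoints linearly. GI50: concentration for 50% inhibition of growth.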 Active and inactive are the calls of the source. No stated cut-off is given here; in the data, active = GI50 up to about 1.1 µM and inactive = higher.

How the values were obtained:
Test in all cases: inhibition of tumour cell growth, NCI panel, 48 h
SK-OV-3 = test system: SK-OV-3
UO-31 = test system: UO-31
COLO 205 = test system: COLO 205
UACC-62 = test system: UACC-62
MCF7 = test system: MCF7
NCI-H226 = test system: NCI-H226
T47D = test system: T47D
SF-295 = test system: SF-295
M14 = test system: M14
SNB-19 = test system: SNB-19
CAKI-1 = test system: CAKI-1
HCT-15 = test system: HCT-15
LOX IMVI = test system: LOX IMVI
EKVX = test system: EKVX
NCI/ADR-RES = test system: NCI/ADR-RES
786-0 = test system: 786-0
NCI-H23 = test system: NCI-H23
SF-268 = test system: SF-268
MDA-MB-231 = test system: MDA-MB-231
SNB-75 = test system: SNB-75
SK-MEL-28 = test system: SK-MEL-28
NCI-H522 = test system: NCI-H522
OVCAR-5 = test system: OVCAR-5
HOP-62 = test system: HOP-62
RPMI-8226 = test system: RPMI-8226
NCI-H460 = test system: NCI-H460
KM12 = test system: KM12
IGROV-1 = test system: IGROV-1
HCC 2998 = test system: HCC 2998
HL-60 = test system: HL-60
RXF 393 = test system: RXF 393
SK-MEL-5 = test system: SK-MEL-5
HT-29 = test system: HT-29
HCT-116 = test system: HCT-116
OVCAR-4 = test system: OVCAR-4
U-251 = test system: U-251
OVCAR-8 = test system: OVCAR-8
MDA-MB-435 = test system: MDA-MB-435
TK-10 = test system: TK-10
PC-3 = test system: PC-3
UACC-257 = test system: UACC-257
SW-620 = test system: SW-620
BT-549 = test system: BT-549
ACHN = test system: ACHN
CCRF-CEM = test system: CCRF-CEM
MOLT-4 = test system: MOLT-4
SK-MEL-2 = test system: SK-MEL-2
SN12C = test system: SN12C
DU-145 = test system: DU-145
HOP-92 = test system: HOP-92
Hs-578T = test system: Hs-578T
A498 = test system: A498
OVCAR-3 = test system: OVCAR-3
SR = test system: SR
Malme-3M = test system: Malme-3M
SF-539 = test system: SF-539
K562 = test system: K562
A549 = test system: A549
MDA-N = test system: MDA-N

COc1cc2c(/C=C3/C(=O)Nc4ccccc43)c(Cl)n(Cc3ccc(Cl)cc3)c2cc1C
GI50 (SK-OV-3): 0.305 µM (active) | GI50 (UO-31): 0.826 µM (active) | GI50 (COLO 205): 0.256 µM (active) | GI50 (UACC-62): 0.28 µM (active) | GI50 (MCF7): 0.491 µM (active) | GI50 (NCI-H226): 0.336 µM (active) | GI50 (T47D): 0.52 µM (active) | GI50 (SF-295): 0.333 µM (active) | GI50 (M14): 0.296 µM (active) | GI50 (SNB-19): 0.43 µM (active) | GI50 (CAKI-1): 0.263 µM (active) | GI50 (HCT-15): 0.242 µM | GI50 (LOX IMVI): 0.344 µM (active) | GI50 (EKVX): 1.18 µM (inactive) | GI50 (NCI/ADR-RES): 0.225 µM (active) | GI50 (786-0): 0.323 µM (active) | GI50 (NCI-H23): 0.24 µM (active) | GI50 (SF-268): 0.675 µM (active) | GI50 (MDA-MB-231): 0.216 µM (active) | GI50 (SNB-75): 0.237 µM (active) | GI50 (SK-MEL-28): 0.386 µM (active) | GI50 (NCI-H522): 0.343 µM (active) | GI50 (OVCAR-5): 0.656 µM (active) | GI50 (HOP-62): 0.237 µM (active) | GI50 (RPMI-8226): 0.27 µM (active) | GI50 (NCI-H460): 0.359 µM (active) | GI50 (KM12): 0.33 µM (active) | GI50 (IGROV-1): 0.538 µM (active) | GI50 (HCC 2998): 0.134 µM (active) | GI50 (HL-60): 0.373 µM (active) | GI50 (RXF 393): 0.339 µM (active) | GI50 (SK-MEL-5): 0.384 µM (active) | GI50 (HT-29): 0.296 µM (active) | GI50 (HCT-116): 0.264 µM (active) | GI50 (OVCAR-4): 0.632 µM (active) | GI50 (U-251): 0.307 µM (active) | GI50 (OVCAR-8): 0.299 µM (active) | GI50 (MDA-MB-435): 0.193 µM (active) | GI50 (TK-10): 0.565 µM (active) | GI50 (PC-3): 0.608 µM (active) | GI50 (UACC-257): 0.378 µM (active) | GI50 (SW-620): 0.472 µM (active) | GI50 (BT-549): 0.382 µM (active) | GI50 (ACHN): 0.324 µM (active) | GI50 (CCRF-CEM): 0.29 µM (active) | GI50 (MOLT-4): 0.264 µM (active) | GI50 (SK-MEL-2): 1.16 µM (inactive) | GI50 (SN12C): 0.226 µM (active) | GI50 (DU-145): 0.306 µM (active) | GI50 (HOP-92): 11.8 µM (inactive) | GI50 (Hs-578T): 0.401 µM (active) | GI50 (A498): 0.733 µM (active) | GI50 (OVCAR-3): 0.207 µM (active) | GI50 (SR): 0.209 µM (active) | GI50 (Malme-3M): 0.843 µM (active) | GI50 (SF-539): 0.27 µM (active) | GI50 (K562): 0.365 µM (active) | GI50 (A549): 0.366 µM (active)

C=CCn1c(-c2ccc(/N=N/Nc3ccc(-c4n[nH]c(=S)n4CC=C)cc3)cc2)n[nH]c1=S
GI50 (SK-OV-3): 11.7 µM (inactive) | GI50 (UO-31): 1.83 µM (inactive) | GI50 (COLO 205): 2.94 µM (inactive) | GI50 (MCF7): 3.69 µM (inactive) | GI50 (NCI-H226): 2.32 µM (inactive) | GI50 (T47D): 1.11 µM (active) | GI50 (SF-295): 3.39 µM (inactive) | GI50 (M14): 3.03 µM (inactive) | GI50 (SNB-19): 27 µM (inactive) | GI50 (CAKI-1): 4.57 µM (inactive) | GI50 (HCT-15): 4.59 µM | GI50 (LOX IMVI): 3.4 µM (inactive) | GI50 (EKVX): 5.55 µM (inactive) | GI50 (NCI/ADR-RES): 21.4 µM (inactive) | GI50 (786-0): 8.41 µM (inactive) | GI50 (NCI-H23): 3.22 µM (inactive) | GI50 (SF-268): 5.06 µM (inactive) | GI50 (MDA-MB-231): 22 µM (inactive) | GI50 (SNB-75): 3.93 µM (inactive) | GI50 (SK-MEL-28): 6.9 µM (inactive) | GI50 (NCI-H522): 2.92 µM (inactive) | GI50 (OVCAR-5): 28 µM (inactive) | GI50 (HOP-62): 3.4 µM (inactive) | GI50 (RPMI-8226): 1.76 µM (inactive) | GI50 (KM12): 3.04 µM (inactive) | GI50 (IGROV-1): 3.34 µM (inactive) | GI50 (RXF 393): 13.9 µM (inactive) | GI50 (SK-MEL-5): 1.53 µM (inactive) | GI50 (OVCAR-4): 2.53 µM (inactive) | GI50 (U-251): 4.36 µM (inactive) | GI50 (OVCAR-8): 2.8 µM (inactive) | GI50 (MDA-MB-435): 3.33 µM (inactive) | GI50 (TK-10): 11.8 µM (inactive) | GI50 (PC-3): 3.17 µM (inactive) | GI50 (UACC-257): 3.33 µM (inactive) | GI50 (SW-620): 7.13 µM (inactive) | GI50 (BT-549): 2.3 µM (inactive) | GI50 (ACHN): 2.21 µM (inactive) | GI50 (CCRF-CEM): 3.13 µM (inactive) | GI50 (MOLT-4): 2.01 µM (inactive) | GI50 (SK-MEL-2): 2.67 µM (inactive) | GI50 (SN12C): 3.49 µM (inactive) | GI50 (DU-145): 3.65 µM (inactive) | GI50 (HOP-92): 7.31 µM (inactive) | GI50 (Hs-578T): 5.15 µM (inactive) | GI50 (A498): > 100 µM (inactive) | GI50 (OVCAR-3): 2.52 µM (inactive) | GI50 (SR): 2.84 µM (inactive) | GI50 (Malme-3M): 3.57 µM (inactive) | GI50 (K562): 2.12 µM (inactive) | GI50 (A549): 3.52 µM (inactive)

N#Cc1c(N2CCOCC2)ncn(-c2ccc(Cl)cc2)c1=O
GI50 (SK-OV-3): > 100 µM (inactive) | GI50 (UO-31): > 100 µM (inactive) | GI50 (COLO 205): > 100 µM (inactive) | GI50 (UACC-62): > 100 µM (inactive) | GI50 (MCF7): > 100 µM (inactive) | GI50 (NCI-H226): > 100 µM (inactive) | GI50 (T47D): > 100 µM (inactive) | GI50 (SF-295): > 100 µM (inactive) | GI50 (M14): > 100 µM (inactive) | GI50 (SNB-19): > 100 µM (inactive) | GI50 (CAKI-1): > 100 µM (inactive) | GI50 (HCT-15): > 100 µM | GI50 (LOX IMVI): > 100 µM (inactive) | GI50 (EKVX): > 100 µM (inactive) | GI50 (NCI/ADR-RES): > 100 µM (inactive) | GI50 (786-0): > 100 µM (inactive) | GI50 (NCI-H23): > 100 µM (inactive) | GI50 (SNB-75): > 100 µM (inactive) | GI50 (SK-MEL-28): > 100 µM (inactive) | GI50 (OVCAR-5): > 100 µM (inactive) | GI50 (HOP-62): > 100 µM (inactive) | GI50 (RPMI-8226): > 100 µM (inactive) | GI50 (NCI-H460): > 100 µM (inactive) | GI50 (KM12): > 100 µM (inactive) | GI50 (IGROV-1): > 100 µM (inactive) | GI50 (HCC 2998): > 100 µM (inactive) | GI50 (HL-60): 18.1 µM (inactive) | GI50 (SK-MEL-5): > 100 µM (inactive) | GI50 (HCT-116): > 100 µM (inactive) | GI50 (U-251): > 100 µM (inactive) | GI50 (OVCAR-8): > 100 µM (inactive) | GI50 (MDA-MB-435): > 100 µM (inactive) | GI50 (PC-3): > 100 µM (inactive) | GI50 (UACC-257): > 100 µM (inactive) | GI50 (SW-620): > 100 µM (inactive) | GI50 (BT-549): > 100 µM (inactive) | GI50 (ACHN): > 100 µM (inactive) | GI50 (CCRF-CEM): > 100 µM (inactive) | GI50 (MOLT-4): > 100 µM (inactive) | GI50 (SK-MEL-2): > 100 µM (inactive) | GI50 (SN12C): > 100 µM (inactive) | GI50 (DU-145): > 100 µM (inactive) | GI50 (HOP-92): > 100 µM (inactive) | GI50 (A498): > 100 µM (inactive) | GI50 (OVCAR-3): > 100 µM (inactive) | GI50 (SR): > 100 µM (inactive) | GI50 (SF-539): > 100 µM (inactive) | GI50 (K562): > 100 µM (inactive) | GI50 (A549): > 100 µM (inactive) | GI50 (MDA-N): > 100 µM (inactive)
